{"source": "patent US20030225279A1", "about": "“Stavudine Polymorphic Form 1 process” (priority 2000, published 2003)", "key": {"[1]": {"settings": "solid state, relative to Forms II and III; cited from earlier work"}, "[2]": {"test": "Solubility in supercritical carbon dioxide", "assay_type": "physicochemical", "settings": "supercritical carbon dioxide as antisolvent"}}, "note": "“Also recorded” adds a separate entry of the source.", "data": [{"smiles": "Cc1cn([C@H]2C=C[C@@H](CO)O2)c(=O)[nH]c1=O", "note": "[Form I, 2′, 3′-didehydro-3′-deoxythymidine]", "values": [{"measurement": "thermodynamic stability / transformation to other polymorphic forms", "setting": "[1]", "result": "stable and shows no transformations to other polymorphic forms; also recorded: most thermodynamically stable form, with no tendency for solid state conversion to the other Forms"}]}, {"smiles": "Cc1cn([C@H]2C=C[C@@H](CO)O2)c(=O)[nH]c1=O", "note": "[Stavudine, 2′, 3′-didehydro-3′-deoxythymidine]", "values": [{"measurement": "solubility in supercritical carbon dioxide", "setting": "[2]", "result": "practically insoluble"}]}]}
